The values that follow come from patent US20240270739A1, “Heteroaryl Fluoroalkenes As DGK Inhibitors” (Incyte Corporation, priority 2023, published 2024).

Experiment [1] addresses T1, DGKζ (Homo sapiens, UniProt Q13574).
T1 construct: His; purchased Signal Chem D30-10H
Kind of experiment: In vitro DGKζ inhibition assay (ADP-Glo). Format: biochemical. To be noted: His-tagged human recombinant enzyme, 0.4 nM DGKζ, 30 μM ATP, 20 μM DLG, 90 minute incubation. Here is the method:
(§1) The DGKα and DGKζ biochemical reactions were performed using His-tagged human recombinant enzymes (Signal Chem, DGKα, #D21-10BH; DGKζ, #D30-10H)) and DLG (Dilauroyl-sn-glycerol) lipid substrate (Signal Chem, #D430-59). ADP-Glo assay was performed using ADP-Glo™ kinase Assay kit (Promega, #V9104). The reactions were carried out in assay buffer containing 40 mM Tris, pH 7.5, 0.1% CHAPS, 0.1% Prionex, 40 mM NaCl, 5 mM MgCl2, 1 mM CaCl2, and 1 mM DTT. DGKα reactions contained 0.1 nM DGKα, 50 μM ATP, and 20 μM DLG. And DGKζ reactions contained 0.4 nM DGKζ, 30 μM ATP, and 20 μM DLG.
(§2) For compound inhibition studies, 40 nL test compound in DMSO was added to wells of white polystyrene plates in 384-well (Greiner, #784075) or 1536-well format (Greiner, #782075). Compounds were added with top concentration of 2 mM with 11 point, 3-fold dilution series. Enzyme solution (contains 2×DGK enzyme concentration in 1× assay buffer) was added to the plate in 2 μL/well volume, followed by 2 μL/well of substrate solution (contains 2× concentration of ATP and DLG substrate in 1× assay buffer). Plates were then centrifuged for 1 min at 1200 RPM and sealed or lidded. For 4 μL reaction volume, test compounds were therefore diluted 100× to final top concentration of […]. After 90 minute incubation, reactions were quenched by addition of 2 μL/well Promega ADP-Glo Reagent, followed by centrifugation and lidding. After 60 min incubation, 2 μL/well Promega Kinase Detection Reagent was added, plates centrifuged, and incubated for 30 min. Plates were then read using Luminescence method on BMG PHERAstar FSX plate reader. Percent inhibition was calculated and IC50s were determined using 4-parameter fit in Genedata Screener. Labcyte Echo acoustic dispenser was used for compound addition, and Formulatrix Tempest liquid handler was used for all reagent dispenses. The compounds of the disclosure were tested in one or more of the assays described above, and the resulting data are shown in Table A.

The target in experiment [2] is T2, DGKα (Homo sapiens, UniProt P23743).
T2 construct: His; purchased Signal Chem D21-10BH
Nature of the experiment: In vitro DGKα inhibition assay (ADP-Glo). Format: biochemical. To be noted: His-tagged human recombinant enzyme, 0.1 nM DGKα, 50 μM ATP, 20 μM DLG, 90 minute incubation. Here is the method: as §1, §2
On the technique in general: In ADP-Glo the light output rises with the ADP produced.

T2 sequence (P23743 whole entry): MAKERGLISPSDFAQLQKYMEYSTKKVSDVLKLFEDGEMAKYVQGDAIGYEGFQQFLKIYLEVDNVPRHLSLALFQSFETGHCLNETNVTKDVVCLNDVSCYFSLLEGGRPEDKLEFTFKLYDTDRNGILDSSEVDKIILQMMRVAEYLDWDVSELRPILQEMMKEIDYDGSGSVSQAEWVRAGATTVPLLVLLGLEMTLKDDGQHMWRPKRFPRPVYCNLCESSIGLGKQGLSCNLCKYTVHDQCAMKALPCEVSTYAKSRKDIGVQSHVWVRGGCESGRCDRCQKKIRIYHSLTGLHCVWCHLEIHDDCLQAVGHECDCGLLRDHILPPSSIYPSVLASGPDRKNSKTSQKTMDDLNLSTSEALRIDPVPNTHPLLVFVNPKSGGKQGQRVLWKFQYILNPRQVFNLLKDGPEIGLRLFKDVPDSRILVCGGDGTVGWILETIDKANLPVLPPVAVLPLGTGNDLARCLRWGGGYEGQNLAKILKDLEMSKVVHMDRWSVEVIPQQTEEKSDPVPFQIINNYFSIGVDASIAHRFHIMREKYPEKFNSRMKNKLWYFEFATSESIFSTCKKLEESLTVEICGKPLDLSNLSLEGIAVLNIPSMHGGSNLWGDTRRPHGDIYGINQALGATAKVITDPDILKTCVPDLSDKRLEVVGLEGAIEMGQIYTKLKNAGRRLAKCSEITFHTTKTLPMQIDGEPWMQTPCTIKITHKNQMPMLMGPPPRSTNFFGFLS
T1 sequence (Q13574 whole entry): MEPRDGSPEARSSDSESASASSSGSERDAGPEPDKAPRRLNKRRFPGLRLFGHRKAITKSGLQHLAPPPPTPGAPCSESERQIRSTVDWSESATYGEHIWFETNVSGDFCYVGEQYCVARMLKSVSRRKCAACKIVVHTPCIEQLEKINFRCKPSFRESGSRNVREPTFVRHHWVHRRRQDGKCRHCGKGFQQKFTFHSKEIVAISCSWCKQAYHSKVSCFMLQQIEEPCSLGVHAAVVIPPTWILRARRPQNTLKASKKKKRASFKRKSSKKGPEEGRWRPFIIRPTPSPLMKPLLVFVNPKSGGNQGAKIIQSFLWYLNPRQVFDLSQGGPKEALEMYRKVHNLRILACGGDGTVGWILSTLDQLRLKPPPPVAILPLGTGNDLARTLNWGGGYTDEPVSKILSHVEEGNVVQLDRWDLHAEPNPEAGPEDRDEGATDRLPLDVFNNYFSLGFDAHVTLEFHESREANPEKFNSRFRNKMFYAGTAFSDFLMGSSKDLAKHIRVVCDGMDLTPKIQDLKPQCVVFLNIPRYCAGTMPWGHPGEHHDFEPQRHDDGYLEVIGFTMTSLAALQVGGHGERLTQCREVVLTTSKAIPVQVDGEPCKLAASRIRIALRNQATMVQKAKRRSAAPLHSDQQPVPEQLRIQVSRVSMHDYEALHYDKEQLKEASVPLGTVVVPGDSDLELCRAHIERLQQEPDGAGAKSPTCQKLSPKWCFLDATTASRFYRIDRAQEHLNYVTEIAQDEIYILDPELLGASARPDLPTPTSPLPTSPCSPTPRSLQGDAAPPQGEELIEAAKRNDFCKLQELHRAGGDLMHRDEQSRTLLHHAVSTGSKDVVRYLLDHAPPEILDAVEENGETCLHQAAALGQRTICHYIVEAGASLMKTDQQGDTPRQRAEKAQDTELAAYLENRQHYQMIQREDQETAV

The IC50 is the concentration needed to halve the response being measured. For the compound `F/C(=C\c1ccc(Oc2cccc(F)c2F)c(C(F)(F)F)c1N1CCCC2(CN(CC3CC3)C2)C1)c1ccn(-c2ccnnc2)n1` [Example 20, (Z)-2-(Cyclopropylmethyl)-6-(3-(2,3-difluorophenoxy)-6-(2-fluoro-2-(1-(pyridazin-4-yl)-1H-pyrazol-3-yl)vinyl)-2-(trifluoromethyl)phenyl)-2,6-diazaspiro[3.5]nonane], the IC50 in experiment [1] is 0.02 to 0.2 µM; in experiment [2], at most 0.02 µM.

Consider `F/C(=C\c1ccc(Oc2ccccc2)c(C(F)(F)F)c1N1CCCC2(CCN(CC3CC3)CC2)C1)c1ccn(-c2ccnnc2)n1` [Example 21, (Z)-9-(Cyclopropylmethyl)-2-(6-(2-fluoro-2-(1-(pyridazin-4-yl)-1H-pyrazol-3-yl)vinyl)-3-phenoxy-2-(trifluoromethyl)phenyl)-2,9-diazaspiro[5.5]undecane], for which the IC50 is at most 0.02 µM in experiment [1] and 0.02 to 0.2 µM in experiment [2].

On to `F/C(=C\c1ccc(Oc2cccc(F)c2F)c(Cl)c1N1CCCC2(CCN(CC3CC3)CC2)C1)c1ccn(-c2ccnnc2)n1` [Example 22, (Z)-2-(2-Chloro-3-(2,3-difluorophenoxy)-6-(2-fluoro-2-(1-(pyridazin-4-yl)-1H-pyrazol-3-yl)vinyl)phenyl)-9-(cyclopropylmethyl)-2,9-diazaspiro[5.5]undecane], for which the results for the IC50 in experiment [1] and in experiment [2] were 0.02 to 0.2 µM and at most 0.02 µM, respectively.

As for `OCCN1CCC2(CCCN(c3c(/C=C(\F)c4csc(-c5ccnnc5)n4)ccc(Oc4ccccc4)c3C(F)(F)F)C2)CC1` [Example 23, (Z)-2-(2-(6-(2-Fluoro-2-(2-(pyridazin-4-yl)thiazol-4-yl)vinyl)-3-phenoxy-2-(trifluoromethyl)phenyl)-2,9-diazaspiro[5.5]undecan-9-yl)ethan-1-ol], the results for the IC50 in experiment [1] and in experiment [2] were at most 0.02 µM and 0.02 to 0.2 µM, respectively.

For the compound `CCN1CCC2(CCCN(c3c(/C=C(\F)c4ccn(-c5ccnnc5)n4)ccc(Oc4ccccc4)c3C(F)(F)F)C2)CC1` [Example 24, (Z)-9-Ethyl-2-(6-(2-fluoro-2-(1-(pyridazin-4-yl)-1H-pyrazol-3-yl)vinyl)-3-phenoxy-2-(trifluoromethyl)phenyl)-2,9-diazaspiro[5.5]undecane], the IC50 was at most 0.02 µM in experiment [1] and 0.02 to 0.2 µM in experiment [2].
